# Laboratory results taken from patent publication US9415023B2, “Compositions comprising terpene compounds for treating negative sensory phenomena” (NeuroQuest Inc., priority 2008, dated 2016).
# Entries after “also recorded” stand apart in the source; their conditions may differ.
# What was measured:
# [1] = system: cortical neuron; test: Perforated patch clamp electrophysiology of mouse brain slices; format: cell-based; details: for membrane current (current-voltage relation): geraniol vs. control
# Procedure: Studies were conducted on mouse hippocampal brain slice preparations. In terms of the slice preparations, […] coronal brain slices were prepared from animals housed in a 12 hour light (ZT 0-12):12 hour dark (ZT 12-24) environment. Animals were anesthetized with isoflurane, decapitated, the brain rapidly removed and placed in ice cold, oxygenated (95% 02:5% C02), bicarbonate-buffered artificial cerebral spinal fluid (ACSF). A 1 cm^2 block of brain tissue containing the hippocampi was glued to a cutting surface and coronal slices were prepared using a Leica VT1000S microtome (Leica Microsystems). All slices were left to equilibrate for approximately one hour prior to the transfer to a recording chamber. Once transferred to the chamber, slices were continuously superfused with oxygenated ACSF at a rate of 3 ml/min @30° C. and recordings are generally made for the next 6-12 hours. Patch microelectrodes (5-8 MΩ) made from borosilicate glass (Garner Glass Co.) and filled with K^+ based internal patch solution composed of: (in mM) 120 K-acetate, 40 HEPES, 10 EGTA, 6 MgCl2, nystatin (450 μg/ml) or gramicidin B (5 μg/ml) and pluronic acid F127.
# The perforated patch recording technique and will be used (Korn & Horn, 1989) and viable Hippocampal neurons were visually targeted using Infrared Differential Interference Contrast (IR-DIC) microscopy using a Leica DM LFSA scope. […] Recordings were made from 3 different patch rigs equipped with either […] patch clamp amplifiers interfaced via a Digidata 1322A to a PC computer or on, in terms of the studies performed on dissociated DRG neurons, a Zeiss Axoscop 200 inverted microscope equipped with an Axopatch 200B/Digidata 1322A using Pclamp 9.0 and Axoscope 9 software.
# Test compounds were bath-applied by superfusion to examine for changes in excitability and/or attenuation of ion channels and the effects of compounds on evoked synaptic responses. Stimulating electrodes (concentric or bipolar) were placed within the slices and in accordance with the well known fiber tract pathways of passage for the DH and the hippocampus.
# [2] = Nylon filament test of sensation after topical application (case studies); format: in vivo, human
# Procedure: (§1) A natural blend of geranium oil and other essential oils (Table 1) was also tested in a panel of human neuropathic pain sufferers, some of whom experienced negative sensory phenomena. […] The geranium oil blend or geraniol was topically applied in therapeutically effective amounts to areas of the human body affected with symptoms of negative sensory symptoms. Dosage amount depended on the size of the patient's affected areas. […] Once administered, a typical positive response was reported typically within minutes.
# 7, 2008 and complained of numbness on the soles of their feet. Their sensation was tested with a nylon filament and the patient could not feel the filament on the ball of either foot. Geraniol was applied to the ball of one foot. After approximately 5 minutes the feet were retested with the nylon filament. The foot that had not been treated still could not detect the touch of the filament.
# They could not feel a nylon filament used to test sensation on the bottom of either foot. They had geraniol applied to the left foot and the sensation was retested after 5 minutes. […] The patient was given geraniol to use on the left foot every other day.
# [3] = Subject-reported relief of numbness and pain after topical application (case studies); format: in vivo, human
# Procedure: as §1
smiles,measurement,setting,value
"CC(C)=CCC/C(C)=C/CO [geraniol, 2,6-Octadien-1-ol, 3,7-dimethyl-, (2E)-]",action potentials during current-voltage steps,"[1]; 10 mV steps (250 ms) from -110 to -20 mV, in presence of compound",inhibition of action potentials
same,membrane current (current-voltage relation),[1]; 10 mV steps (250 ms) from -110 to -20 mV,reduction in the membrane current amplitude; also recorded: reduction of membrane currents
same,membrane current (current-voltage relation),"[1]; 10 mV steps (250 ms) from -110 to -20 mV, listed as Geraniol",reduction of membrane currents
same,action potential following depolarizing current pulse,[1]; depolarizing current pulse of 0.4 nA,inhibition of action potential
same,net current reduction (current differential between control and tested compound),"[1]; most negative voltage step (-110 mV), FIG. 3, ranking among samples",greatest inhibition
same,feeling in treated foot vs untreated foot,"[2]; topical every other day, over 2 week period",continued to have more feeling than the right foot
same,sensation tested with nylon filament on treated foot,"[2]; topical, retested after approximately 5 minutes, untreated foot as comparison",improvements in sensory functioning; also recorded: able to feel the nylon filament; also recorded: could detect feeling with a nylon filament
same,"numbness / negative sensory phenomena, subject-reported",[3],improvements seen in subjectively reported symptoms
